The test concerns Hyp mice. In words: Serum 1,25(OH)2D3, calcium and phosphate after single oral dose in wild-type and Hyp mice. Type of test: in vivo, mouse. The source says:
FGFR inhibitor treatment induces 1,25(OH)2D3 biosynthesis and alleviates hypocalcemia and hypophosphatemia in Hyp mice. Wild-type C57BL/6 and Hyp (B6.Cg-PhexHyp/J) mice were obtained from The Jackson Laboratory. Dmp1-null mice were generated by Feng et al. (J. Dent. Res. 2003; 82:776-780.). All mice were kept in cages under standard laboratory conditions. Mice were fed on a standard rodent diet with water ad libitum.
Wild-type or Hyp mice received a single oral dose of the FGFR inhibitor BGJ398 in its free base form (50 mg/kg) or vehicle and were studied 7 h after administration of the compound. BGJ398 or vehicle only (PEG-300/Glucose 5%, 2:1 mix) was administered by oral gavage. Mice were used at 5-7 weeks of age in the case of single dose administrations. Mice were anesthetized by isoflurane inhalation and blood was collected from the caval vein. Mice were sacrificed by exsanguination and kidney and tibial and femoral bones were obtained. Concentrations of BGJ398 in kidney at 7 h was also determined.
Serum was separated from whole blood using clot activator centrifugation tubes. 100 μl of serum were used for determination of phosphate and calcium levels using the VetScan diagnostic profiling system. Serum concentrations of 1,25(OH)2D3 were determined using a radio receptor assay kit. FGF23 serum levels were analyzed by an ELISA detecting intact FGF23 (Kainos).
At 24 h post-dosing, single dose treatment with BGJ398 induced elevated serum calcium and phosphate levels in both wild-type and Hyp mice, thus alleviating the severe hypocalcemia and hypophosphatemia observed in control Hyp mice. […] Data in FIGS. 1 A and B is shown as relative levels to the wild-type control group (relative expression of 100) and are given as average with standard errors of the mean (SEM) (n≥6).
Similarly to example 1, wild-type or Hyp mice received a single oral dose of the FGFR inhibitor BGJ398 or vehicle and were studied […] after administration of the compound. Calcium (FIG. 4A) and phosphate (FIG. 4B) levels were determined from serum. Data are shown as average with SEM (n≥3). Data were compared by unpaired Student's t test; * p<0.05; ** p<0.01; *** p<0.001; n. s.: not significant. (C) BGJ398 concentrations in kidney at 7 h and 24 h post-administration. Values are given as average with SEM (n≥5).

[1] abbreviates: Hyp mice, single oral dose 50 mg/kg, 24 h post-dosing.
The mark [2] stands for this setting: both wild-type and Hyp mice, single oral dose 50 mg/kg, 24 h post-dosing, 50 mg/kg.
The mark [3] stands for this setting: wild-type or Hyp mice, single oral dose, 48 h after administration.

Entries after “also recorded” stand apart in the source; their conditions may differ.

On to `CCN1CCN(c2ccc(Nc3cc(N(C)C(=O)Nc4c(Cl)c(OC)cc(OC)c4Cl)ncn3)cc2)CC1` [BGJ398, 3-(2,6-Dichloro-3,5-dimethoxy-phenyl)-1-{6-[4-(4-ethyl-piperazin-1-yl)-phenylamino]-pyrimid-4-yl}-1-methyl-urea], for which, under setting [1], the “serum calcium levels compared to vehicle-treated wild-type mice” value was “indistinguishable from vehicle-treated wild-type mice” and the “serum phosphate concentrations compared to wild-type mice” value is recorded as “still significantly lower compared to serum levels of wild-type mice”. Further, the “1,25(OH)2D3 serum levels” value (both wild-type and Hyp mice, single oral dose 50 mg/kg, 7 h post-dosing) is listed as “strong increase”. Under setting [2], the serum calcium levels result is listed as “increased; also recorded: elevated” and the serum phosphate levels result was “increased; also recorded: elevated”. Under setting [3], the calcium serum levels entry is “persistent increase” and the phosphate serum levels result is recorded as “persistent increase”.

(Values after patent US10028955B2, “FGFR inhibitor for use in the treatment of hypophosphatemic disorders” (Novartis AG, priority 2012, dated 2018).)
